{
  "source": "patent US20090221603A1",
  "about": "“HETEROCYCLIC AMIDE DERIVATIVES AS CALCIUM CHANNEL BLOCKERS” (priority 2005, published 2009)",
  "key": {"[1]": {"molecular_target": "T1, rat brain N-type calcium channel subunits (α1B+α2δ+β1b cDNA subunits) (Rattus norvegicus, UniProt Q02294)", "T1 construct": "expressed in transfected cells; host or cells: HEK 293 (stably, alternatively transiently, transfected)", "T1 sequence (Q02294 whole entry)": "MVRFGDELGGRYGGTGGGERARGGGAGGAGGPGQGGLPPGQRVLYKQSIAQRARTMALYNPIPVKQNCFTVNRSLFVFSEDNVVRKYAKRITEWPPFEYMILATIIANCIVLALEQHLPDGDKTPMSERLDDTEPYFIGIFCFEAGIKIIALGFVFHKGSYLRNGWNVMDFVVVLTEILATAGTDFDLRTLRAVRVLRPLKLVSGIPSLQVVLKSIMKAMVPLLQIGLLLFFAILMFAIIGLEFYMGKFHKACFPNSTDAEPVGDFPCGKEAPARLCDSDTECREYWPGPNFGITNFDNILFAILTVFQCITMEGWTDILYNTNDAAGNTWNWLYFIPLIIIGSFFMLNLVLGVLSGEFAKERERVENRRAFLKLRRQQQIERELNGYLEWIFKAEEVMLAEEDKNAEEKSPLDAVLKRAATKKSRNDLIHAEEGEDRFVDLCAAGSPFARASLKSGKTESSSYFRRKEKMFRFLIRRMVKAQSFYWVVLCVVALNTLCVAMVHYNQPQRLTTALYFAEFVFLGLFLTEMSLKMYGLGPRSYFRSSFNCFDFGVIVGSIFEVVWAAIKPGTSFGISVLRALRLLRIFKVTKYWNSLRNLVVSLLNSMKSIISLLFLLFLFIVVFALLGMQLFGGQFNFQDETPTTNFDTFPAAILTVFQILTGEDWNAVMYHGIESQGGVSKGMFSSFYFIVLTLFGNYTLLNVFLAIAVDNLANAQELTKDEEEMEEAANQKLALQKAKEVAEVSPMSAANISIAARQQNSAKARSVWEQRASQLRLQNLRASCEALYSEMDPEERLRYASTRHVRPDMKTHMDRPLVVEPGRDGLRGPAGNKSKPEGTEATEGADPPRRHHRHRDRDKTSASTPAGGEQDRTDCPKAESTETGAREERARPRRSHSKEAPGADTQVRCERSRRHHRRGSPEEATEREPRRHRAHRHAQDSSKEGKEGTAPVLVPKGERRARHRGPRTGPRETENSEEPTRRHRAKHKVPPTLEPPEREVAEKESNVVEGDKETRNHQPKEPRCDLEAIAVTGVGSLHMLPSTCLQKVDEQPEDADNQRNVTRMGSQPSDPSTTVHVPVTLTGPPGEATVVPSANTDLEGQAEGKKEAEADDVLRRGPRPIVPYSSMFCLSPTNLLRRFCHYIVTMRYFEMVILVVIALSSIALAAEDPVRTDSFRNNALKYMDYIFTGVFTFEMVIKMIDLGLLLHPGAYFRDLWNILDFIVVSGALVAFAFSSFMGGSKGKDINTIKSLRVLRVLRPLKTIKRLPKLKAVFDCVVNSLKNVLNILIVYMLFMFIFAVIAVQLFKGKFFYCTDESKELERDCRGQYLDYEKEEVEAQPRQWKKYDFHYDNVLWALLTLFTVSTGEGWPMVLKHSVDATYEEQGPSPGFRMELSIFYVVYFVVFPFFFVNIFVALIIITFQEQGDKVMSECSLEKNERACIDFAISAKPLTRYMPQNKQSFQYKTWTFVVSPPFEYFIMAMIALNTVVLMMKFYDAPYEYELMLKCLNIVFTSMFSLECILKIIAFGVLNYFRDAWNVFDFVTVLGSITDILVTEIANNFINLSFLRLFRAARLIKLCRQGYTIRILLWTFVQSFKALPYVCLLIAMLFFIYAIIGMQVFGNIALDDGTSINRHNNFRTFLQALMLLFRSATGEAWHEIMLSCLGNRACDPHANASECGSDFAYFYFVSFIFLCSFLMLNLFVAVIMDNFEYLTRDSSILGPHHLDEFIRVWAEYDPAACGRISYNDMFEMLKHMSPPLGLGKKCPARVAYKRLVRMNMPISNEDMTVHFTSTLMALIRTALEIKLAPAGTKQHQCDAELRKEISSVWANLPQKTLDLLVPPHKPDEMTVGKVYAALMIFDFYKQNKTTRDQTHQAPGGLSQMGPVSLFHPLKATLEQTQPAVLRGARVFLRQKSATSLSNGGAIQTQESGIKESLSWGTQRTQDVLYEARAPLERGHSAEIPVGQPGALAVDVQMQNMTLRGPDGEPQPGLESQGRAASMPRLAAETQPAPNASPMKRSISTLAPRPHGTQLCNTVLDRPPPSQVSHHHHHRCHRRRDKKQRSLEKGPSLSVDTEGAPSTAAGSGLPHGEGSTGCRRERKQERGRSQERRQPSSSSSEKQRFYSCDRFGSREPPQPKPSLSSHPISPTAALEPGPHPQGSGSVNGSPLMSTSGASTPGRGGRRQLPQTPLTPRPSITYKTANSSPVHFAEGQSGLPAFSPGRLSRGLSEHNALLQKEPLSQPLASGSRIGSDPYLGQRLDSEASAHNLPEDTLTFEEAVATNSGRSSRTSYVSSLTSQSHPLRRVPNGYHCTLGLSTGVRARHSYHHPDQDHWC", "T1 sequence (P54290 25-944 partner limits assumed)": "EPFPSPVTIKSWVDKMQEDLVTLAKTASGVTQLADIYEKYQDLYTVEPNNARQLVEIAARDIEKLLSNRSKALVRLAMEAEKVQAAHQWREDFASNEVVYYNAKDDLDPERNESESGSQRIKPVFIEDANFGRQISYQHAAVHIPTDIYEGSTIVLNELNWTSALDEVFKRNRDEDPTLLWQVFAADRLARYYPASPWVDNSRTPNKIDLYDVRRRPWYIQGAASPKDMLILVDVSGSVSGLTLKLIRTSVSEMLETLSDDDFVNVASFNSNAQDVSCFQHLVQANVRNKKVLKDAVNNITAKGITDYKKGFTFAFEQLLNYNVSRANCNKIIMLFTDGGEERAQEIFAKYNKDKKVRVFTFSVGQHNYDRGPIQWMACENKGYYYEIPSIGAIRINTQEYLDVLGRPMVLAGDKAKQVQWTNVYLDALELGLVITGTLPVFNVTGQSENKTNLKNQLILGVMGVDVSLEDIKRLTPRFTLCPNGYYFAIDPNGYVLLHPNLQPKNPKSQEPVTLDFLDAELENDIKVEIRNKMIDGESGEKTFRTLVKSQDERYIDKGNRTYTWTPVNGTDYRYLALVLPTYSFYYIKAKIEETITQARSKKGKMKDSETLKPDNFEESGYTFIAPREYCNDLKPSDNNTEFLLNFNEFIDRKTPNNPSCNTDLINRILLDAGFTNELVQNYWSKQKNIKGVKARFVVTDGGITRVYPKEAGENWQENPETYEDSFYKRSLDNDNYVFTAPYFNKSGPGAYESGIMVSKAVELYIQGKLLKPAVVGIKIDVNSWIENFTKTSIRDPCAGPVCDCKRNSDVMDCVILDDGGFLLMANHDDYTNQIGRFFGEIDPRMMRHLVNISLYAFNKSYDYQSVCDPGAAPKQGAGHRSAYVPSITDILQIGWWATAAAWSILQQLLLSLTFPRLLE", "T1 sequence (P54290 945-1091 partner limits assumed)": "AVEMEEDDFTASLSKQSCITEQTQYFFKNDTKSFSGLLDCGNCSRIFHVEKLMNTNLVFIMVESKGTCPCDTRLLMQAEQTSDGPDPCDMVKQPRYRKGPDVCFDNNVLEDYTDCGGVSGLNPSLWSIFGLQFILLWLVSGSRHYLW", "T1 sequence (P54283 whole entry partner)": "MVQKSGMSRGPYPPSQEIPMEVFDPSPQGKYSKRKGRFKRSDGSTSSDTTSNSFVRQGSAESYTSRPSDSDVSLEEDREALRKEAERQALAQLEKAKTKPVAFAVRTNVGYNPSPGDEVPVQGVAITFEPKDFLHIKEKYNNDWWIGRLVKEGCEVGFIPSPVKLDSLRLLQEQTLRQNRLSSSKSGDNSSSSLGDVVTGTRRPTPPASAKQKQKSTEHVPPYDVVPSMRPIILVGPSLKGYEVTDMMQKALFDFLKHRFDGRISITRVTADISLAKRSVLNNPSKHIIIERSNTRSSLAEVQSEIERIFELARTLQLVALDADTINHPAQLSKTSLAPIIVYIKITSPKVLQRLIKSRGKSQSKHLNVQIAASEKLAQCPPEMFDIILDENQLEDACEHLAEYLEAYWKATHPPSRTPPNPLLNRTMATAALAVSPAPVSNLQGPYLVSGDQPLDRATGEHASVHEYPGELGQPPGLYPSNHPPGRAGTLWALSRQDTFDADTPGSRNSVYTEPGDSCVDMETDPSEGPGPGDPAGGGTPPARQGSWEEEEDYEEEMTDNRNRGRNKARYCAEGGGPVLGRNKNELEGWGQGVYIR", "test": "N-type calcium channel block, whole cell patch clamp in HEK 293 cells", "type": "cell-based", "settings": "holding potential −80 mV to +10 mV", "procedure": "A. Transformation of HEK Cells: • N-type calcium channel blocking activity was assayed in human embryonic kidney cells, HEK 293, stably transfected with the rat brain N-type calcium channel subunits (α1B+α2δ+β1b cDNA subunits). Alternatively, N-type calcium channels (α1B+α2δ+β1b cDNA subunits), L-type channels (α1C+α2δ+β1b cDNA subunits) and P/Q-type channels (α1A+α2δ+β1b cDNA subunits) were transiently expressed in HEK 293 cells. Briefly, cells were cultured in Dulbecco's modified eagle medium (DMEM) supplemented with 10% fetal bovine serum, 200 U/ml penicillin and 0.2 mg/ml streptomycin at 37° C. with 5% CO2. At 85% confluency cells were split with 0.25% trypsin/1 mM EDTA and plated at 10% confluency on glass coverslips. At 12 hours the medium was replaced and the cells transiently transfected using a standard calcium phosphate protocol and the appropriate calcium channel cDNA's. Fresh DMEM was supplied and the cells transferred to 28° C./5% CO2. Cells were incubated for 1 to 2 days prior to whole cell recording.\nB. Measurement of Inhibition\nWhole cell patch clamp experiments were performed using an Axopatch 200B amplifier (Axon Instruments, Burlingame, Calif.) linked to a personal computer equipped with pCLAMP software. The external and internal recording solutions contained, respectively, 5 mM BaCl2, 10 mM MgCl2, 10 mM HEPES, 40 mM TEACl, 10 mM glucose, 87.5 mM CsCl (pH 7.2) and 108 mM CsMS, 4 mM MgCl2, 9 mM EGTA, 9 mM HEPES (pH 7.2). Currents were typically elicited from a holding potential of −80 mV to +10 mV using Clampex software (Axon Instruments). Typically, currents were first elicited with low frequency stimulation (0.067 Hz) and allowed to stabilize prior to application of the compounds. The compounds were then applied during the low frequency pulse trains for two to three minutes to assess tonic block, and subsequently the pulse frequency was increased to 0.2 Hz to assess frequency dependent block. Data were analyzed using Clampfit (Axon Instruments) and SigmaPlot 4.0 (Jandel Scientific)."}, "[2]": {"molecular_target": "T2, human α1G T-type channels (Homo sapiens, UniProt O43497)", "T2 construct": "expressed in transfected cells", "test": "T-type calcium channel block, patch clamp in HEK cell lines", "type": "cell-based", "settings": "mainly non-inactivated protocol; HEK cells expressing human α1G; read-out: IC50 @ −80 mV"}, "[3]": {"tested_on": "tactile allodynia after L5/L6 spinal nerve ligation", "test": "Spinal nerve ligation model of neuropathic pain, tactile allodynia (von Frey)", "type": "in vivo, rat", "settings": "SNL rats; orally in propylene glycol solution, 300 mg/kg", "description": "Spinal nerve ligation (SNL) injury was induced using the procedure of Kim and Chung, (Kim, S. H., et al., Pain (1992) 50:355-363) in male Sprague-Dawley rats (Harlan; Indianapolis, Ind.) weighing 200 to 300 grams. Anesthesia was induced with 2% halothane in O2 at 2 L/min and maintained with 0.5% halothane in O2. After surgical preparation of the rats and exposure of the dorsal vertebral column from L4 to S2, the L5 and L6 spinal nerves were tightly ligated distal to the dorsal root ganglion using 4-0 silk suture. The incision was closed, and the animals were allowed to recover for 5 days. […] Sham control rats underwent the same operation and handling as the experimental animals, but without SNL. The assessment of tactile allodynia consisted of measuring the withdrawal threshold of the paw ipsilateral to the site of nerve injury in response to probing with a series of calibrated von Frey filaments. Each filament was applied perpendicularly to the plantar surface of the ligated paw of rats kept in suspended wire-mesh cages. Measurements were taken before and after administration of drug or vehicle. Withdrawal threshold was determined by sequentially increasing and decreasing the stimulus strength (“up and down” method), analyzed using a Dixon non-parametric test (Chaplan S. R., et al., J Pharmacol Exp Ther (1994) 269:1117-1123), and expressed as the mean withdrawal threshold."}, "[4]": {"tested_on": "T-type over L-type channels", "settings": "cited from earlier work"}, "[5]": {"settings": "low frequency stimulation 0.067 Hz (tonic block), read-out: IC50 @ 0.067 Hz"}, "[6]": {"settings": "pulse frequency 0.2 Hz (frequency dependent block), read-out: IC50 @ 0.2 Hz"}},
  "note": "pIC50: −log10 of the molar value. Where two headings read alike, the source gives them in different places.",
  "data": [
    {"smiles": "O=C(CNC(c1ccccc1)c1ccccc1)N1CCN(C(c2ccccc2)c2ccccc2)CC1", "note": "[Compound 1, 2-benzhydrylamino-1-(4-benzhydrylpiperazin-1-yl)ethanone]", "values": [
      {"measurement": "pIC50", "setting": "[1]; [5]", "result": 6.85},
      {"measurement": "pIC50", "setting": "[1]; [6]", "result": 7.10},
      {"measurement": "pIC50", "setting": "[2]", "result": 7.10}
    ]},
    {"smiles": "CN(CC(=O)N1CCN(C(c2ccccc2)c2ccccc2)CC1)C(c1ccccc1)c1ccccc1", "note": "[Compound 2, 2-benzhydryl(methyl)amino-1-(4-benzhydrylpiperazin-1-yl)ethanone]", "values": [
      {"measurement": "pIC50", "setting": "[1]; [5]", "result": 6.28},
      {"measurement": "pIC50", "setting": "[1]; [6]", "result": 6.51},
      {"measurement": "pIC50", "setting": "[2]", "result": 5.54}
    ]},
    {"smiles": "CN(CC(=O)N1CCN(C(c2ccccc2)c2ccc(F)cc2)CC1)C(c1ccccc1)c1ccccc1", "note": "(centres unmarked) [Compound 6, 2-benzhydryl(methyl)amino-1-(4-((4-fluorophenyl)(phenyl)methyl)piperazin-1-yl)ethanone]", "values": [
      {"measurement": "pIC50", "setting": "[1]; [5]", "result": 6.77},
      {"measurement": "pIC50", "setting": "[1]; [6]", "result": 6.92},
      {"measurement": "pIC50", "setting": "[2]", "result": 5.70}
    ]},
    {"smiles": "O=C(COc1ccc(Cl)cc1Cl)N1CCN(C(c2ccccc2)c2ccccc2)CC1", "note": "[Compound 26, 1-(4-benzhydrylpiperazin-1-yl)-2-(2,4-dichlorophenoxy)ethanone]", "values": [
      {"measurement": "pIC50", "setting": "[1]; [5]", "result": 6.60},
      {"measurement": "pIC50", "setting": "[1]; [6]", "result": 6.72},
      {"measurement": "pIC50", "setting": "[2]", "result": 5.90}
    ]},
    {"smiles": "O=C(CNC(c1ccccc1)c1ccccc1)N1CCN(C(c2ccc(F)cc2)c2ccc(F)cc2)CC1", "note": "[Compound 29, 2-(benzhydrylamino)-1-(4-(bis(4-fluorophenyl)methyl)piperazin-1-yl)ethanone]", "values": [
      {"measurement": "pIC50", "setting": "[1]; [5]", "result": 6.57},
      {"measurement": "pIC50", "setting": "[1]; [6]", "result": 6.85},
      {"measurement": "pIC50", "setting": "[2]", "result": 5.01}
    ]},
    {"smiles": "O=C(COC(c1ccccc1)c1ccccc1)N1CCN(C(c2ccccc2)c2ccccc2)CC1", "note": "[Compound 30, 2-(benzhydryloxy)-1-(4-benzhydrylpiperazin-1-yl)ethanone]", "values": [
      {"measurement": "pIC50", "setting": "[1]; [5]", "result": 6.31},
      {"measurement": "pIC50", "setting": "[1]; [6]", "result": 6.57},
      {"measurement": "pIC50", "setting": "[2]", "result": 6.23}
    ]},
    {"smiles": "O=C(COC(c1ccccc1)c1ccccc1)N1CCN(C(c2ccc(F)cc2)c2ccc(F)cc2)CC1", "note": "[Compound 46, 2-(benzhydryloxy)-1-(4-(bis(4-fluorophenyl)methyl)piperazin-1-yl)ethanone]", "values": [
      {"measurement": "pIC50", "setting": "[1]; [5]", "result": 6.04},
      {"measurement": "pIC50", "setting": "[1]; [6]", "result": 6.37},
      {"measurement": "pIC50", "setting": "[2]", "result": 6.46}
    ]},
    {"smiles": "O=C(C[S+]([O-])C(c1ccccc1)c1ccccc1)N1CCN(C(c2ccc(F)cc2)c2ccc(F)cc2)CC1", "note": "(centres unmarked) [Compound 48, 2-(benzhydrylsulfinyl)-1-(4-(bis(4-fluorophenyl)methyl)piperazin-1-yl)ethanone]", "values": [
      {"measurement": "pIC50", "setting": "[1]; [5]", "result": 6.66},
      {"measurement": "pIC50", "setting": "[1]; [6]", "result": 6.80},
      {"measurement": "pIC50", "setting": "[2]", "result": 6.51}
    ]},
    {"smiles": "O=C(CNC(c1ccccc1)c1ccccc1)N1CCN(C(c2ccccc2)c2ccccc2)C(CO)C1", "note": "(centres unmarked) [Compound 49, 2-benzhydrylamino-1-(4-benzhydryl-3-hydroxymethylpiperazin-1-yl)ethanone]", "values": [
      {"measurement": "pIC50", "setting": "[1]; [5]", "result": 6.31},
      {"measurement": "pIC50", "setting": "[1]; [6]", "result": 6.54},
      {"measurement": "pIC50", "setting": "[2]", "result": 6.43},
      {"measurement": "reversal of allodynia", "setting": "[3]", "result": "complete reversal of allodynia"}
    ]},
    {"smiles": "COCC1CN(C(=O)CNC(c2ccccc2)c2ccccc2)CCN1C(c1ccccc1)c1ccccc1", "note": "(centres unmarked) [Compound 53, 2-benzhydrylamino-1-(4-benzhydryl-3-methoxymethylpiperazin-1-yl)ethanone]", "values": [
      {"measurement": "pIC50", "setting": "[1]; [5]", "result": 6.60},
      {"measurement": "pIC50", "setting": "[1]; [6]", "result": 6.82},
      {"measurement": "pIC50", "setting": "[2]", "result": 6.31}
    ]},
    {"smiles": "COCC(=O)O[C@]1(CCN(C)CCCc2nc3ccccc3[nH]2)CCc2cc(F)ccc2[C@@H]1C(C)C", "note": "[Mibefradil]", "values": [
      {"measurement": "selectivity for T-type over L-type channels", "setting": "[4]", "result": "10-30 fold"}
    ]}
  ]
}
